This assay has as its target T1, canine TRPM8 (Canis lupus familiaris, UniProt Q1A7N1).
T1 construct: expressed in transfected cells
As to the kind of experiment: In Vitro Canine TRPM8 Functional Assay (Ca2+ fluorescence, icilin activation). The format is cell-based. The note with it: for % Inh @ 0.2 μM: 0.2 μM compound; for IC50: HEK293 cells stably expressing canine TRPM8, icilin activation, Ca2+ fluorescence; for inhibition at 0.2 µM: HEK293, 0.2 μM compound; for inhibition at 0.5 µM: HEK293, 0.5 μM compound; for % Inh @ 0.5 μM: 0.5 μM compound; for inhibition at 1 µM: HEK293, 1 μM compound. The method in brief:
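HEK293 cells stably expressing canine TRPM8, loaded with Calcium 3 dye; compounds added 5 min before icilin at a concentration giving ~80% maximal response. Peak icilin-evoked Ca2+ fluorescence, basal-subtracted and normalised to maximal response, fitted by sigmoidal nonlinear regression; quadruplicate wells.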

Where [1] appears, read: canine TRPM8 HEK293, icilin, 0.2 µM.

Values joined by “and” are separate entries in the source; they are usually repeats but may differ in a detail not shown here. Identical values can stand only once.

T1 sequence (Q1A7N1 1-1104): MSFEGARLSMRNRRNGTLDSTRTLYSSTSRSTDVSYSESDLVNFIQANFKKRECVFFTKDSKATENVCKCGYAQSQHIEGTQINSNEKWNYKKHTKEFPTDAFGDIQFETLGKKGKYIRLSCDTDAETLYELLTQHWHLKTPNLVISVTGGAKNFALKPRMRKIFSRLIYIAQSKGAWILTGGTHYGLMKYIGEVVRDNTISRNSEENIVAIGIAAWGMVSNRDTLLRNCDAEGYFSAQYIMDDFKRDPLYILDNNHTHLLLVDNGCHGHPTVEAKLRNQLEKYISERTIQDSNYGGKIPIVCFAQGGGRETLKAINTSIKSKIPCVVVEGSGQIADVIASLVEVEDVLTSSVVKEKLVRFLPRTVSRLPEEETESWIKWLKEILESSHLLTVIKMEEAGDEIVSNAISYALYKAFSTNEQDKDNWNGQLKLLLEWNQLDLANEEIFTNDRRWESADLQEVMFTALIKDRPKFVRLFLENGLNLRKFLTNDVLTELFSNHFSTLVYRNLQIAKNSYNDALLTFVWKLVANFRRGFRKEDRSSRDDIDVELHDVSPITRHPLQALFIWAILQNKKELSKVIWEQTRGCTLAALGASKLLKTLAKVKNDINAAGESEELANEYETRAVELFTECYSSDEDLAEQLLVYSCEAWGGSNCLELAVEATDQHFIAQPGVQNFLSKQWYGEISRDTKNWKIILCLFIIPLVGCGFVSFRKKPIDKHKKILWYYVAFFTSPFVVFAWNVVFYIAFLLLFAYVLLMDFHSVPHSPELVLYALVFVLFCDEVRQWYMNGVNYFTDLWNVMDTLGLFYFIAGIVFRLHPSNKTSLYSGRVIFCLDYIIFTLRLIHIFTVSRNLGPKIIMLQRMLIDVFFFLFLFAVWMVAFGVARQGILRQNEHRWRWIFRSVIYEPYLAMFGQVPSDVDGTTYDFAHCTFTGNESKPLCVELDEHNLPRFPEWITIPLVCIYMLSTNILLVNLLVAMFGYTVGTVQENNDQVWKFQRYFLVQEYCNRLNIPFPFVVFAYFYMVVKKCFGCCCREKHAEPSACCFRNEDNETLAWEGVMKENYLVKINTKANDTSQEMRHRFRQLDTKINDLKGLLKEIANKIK

The IC50 is the concentration that inhibits the measured activity by half. Higher therefore signals weaker potency in that assay. The compound `O=C(C(Nc1ccccc1F)c1ccc(Br)cc1)N1CCCC1c1ccccc1F` (mixture of isomers) [Cpd 180] came in with an IC50 of 9 nM. The “% Inh @ 0.2 μM” value (canine TRPM8 HEK293, icilin) stood at 97%.
The compound `O=C(C(Nc1ccccc1F)c1ccc2ncccc2c1)N1CCCC1c1ccccc1F` (single isomer, unassigned) [Cpd 251] displayed a 50% inhibitory concentration (IC50) of 53.7 nM. The “% Inh @ 0.2 μM” value under setting [1] stood at 90%.
Broadly, the inhibition is the drop in the measured response relative to a control, in per cent. Compound `CN(C)c1ccc(C2CCCN2C(=O)C(Nc2c(F)cccc2F)c2ccc(Cl)cc2)cc1` (stereo not drawn) [Cpd 273] gave an IC50 of 104 nM. In addition, for the setting “canine TRPM8 HEK293, icilin”, the inhibition at 0.2 µM was determined as 98%.
`O=C(C(Nc1ccccc1)c1ccc(C(F)(F)F)cc1)N1CCCCC1c1ccccc1` (stereo not drawn) [Cpd 44] yielded an IC50 of 57.6 nM. For the same compound, the inhibition at 0.5 µM (canine TRPM8 HEK293, icilin) amounted to 101%.
`O=C(C(Nc1cc(F)ccc1F)c1ccc(Cl)cc1)N1Cc2ccccc2C1` (stereo not drawn) [Cpd 174]: the IC50 worked out at 45.2 nM. For the same compound, under “canine TRPM8 HEK293, icilin”, the inhibition at 0.2 µM came out at 98%.
For `O=C(C(Nc1ccccc1F)c1ccc(-c2ccccn2)cc1)N1CCCC1c1ccccc1Cl` (single isomer, unassigned) [Cpd 338] the same measures were 17 nM and 101%.
On the same counts, the results for `O=C(C(Nc1ccccc1F)c1cc2ccccc2s1)N1CCCC1c1ccccn1` (single isomer, unassigned) [Cpd 330] are 6 nM and 101%.
Compound `O=C(C(Nc1ccccc1)c1ccc(C(F)(F)F)cc1)N1CCCC1c1ccccc1F` (single isomer, unassigned) [Cpd 46] gave an IC50 of 7.46 nM. Besides, for the setting “canine TRPM8 HEK293, icilin”, the “% Inh @ 0.5 μM” value stood at 101.53%.
`O=C(C(Nc1ccccc1F)c1ccc(-c2ccccc2)nc1)N1CCC[C@H]1c1ccccc1F` (mixture of isomers) [Cpd 306] yielded an IC50 of 7 nM. The “% Inh @ 0.2 μM” value under setting [1] is recorded as 102%. The inhibition at 0.2 µM (canine TRPM8 HEK293, icilin) was 101%.
`O=C(C(Nc1ccccc1F)c1ccc(C(F)(F)F)cc1)N1CCCC1c1ccncc1` (stereo not drawn) [Cpd 197] displayed an IC50 of 19 nM. Besides, the inhibition at 0.2 µM (canine TRPM8 HEK293, icilin) turned out to be 97%.
As to `O=C(C(Nc1ccccc1F)c1cncc2ccccc12)N1CCCC1c1ccccc1F` (single isomer, unassigned) [Cpd 333], the “% Inh @ 0.2 μM” value under setting [1] was found to be 62%.
`O=C(C(Nc1ccccc1)c1ccc(C(F)(F)F)cc1)N1CCCC1c1ccccn1` (stereo not drawn) [Cpd 50]: the IC50 is 376 nM. Moreover, where the note is “canine TRPM8 HEK293, icilin”, the inhibition at 0.5 µM is 83.6%.
Regarding `O=C(C(Nc1ccccc1F)c1ccc(C(F)(F)F)cc1)N1CCCC1c1cccnc1` (stereo not drawn) [Cpd 203], the midpoint of inhibition, the IC50, lay at 7 nM. Further, the inhibition at 0.2 µM (canine TRPM8 HEK293, icilin) worked out at 102%.
On the same counts, the results for `O=C(C(Nc1ccccc1F)c1ccc2ncccc2c1)N1CCCC1c1ccccc1F` (stereo not drawn) [Cpd 248] are 12.3 nM and 94%.
`O=C(C(Nc1ccc(F)cc1F)c1ccc(Cl)cc1)N1CCCC1c1ccccc1Cl` (stereo not drawn) [Cpd 122] registered an IC50 of 147 nM. Under “canine TRPM8 HEK293, icilin”, the inhibition at 0.5 µM was 96%.
The compound `CC(C)(C)c1ccc(C(Nc2ccccc2)C(=O)N2CCCCC2Cc2ccccc2)cc1` (stereo not drawn) [Cpd 14] registered a half-maximal inhibitory concentration (IC50) of 416 nM. The inhibition at 1 µM (canine TRPM8 HEK293, icilin) worked out at 102%.
For the compound `O=C(C(Nc1ccccc1F)c1cnc2ccccc2c1)N1CCC[C@H]1c1ccccc1F` (single isomer, unassigned) [Cpd 280], the IC50 is 4 nM and 8 nM. Also, the “% Inh @ 0.2 μM” value under setting [1] turned out to be 101%. Moreover, under “canine TRPM8 HEK293, icilin”, the inhibition at 0.2 µM came to 93%.
`COc1ccc(C(Nc2sccc2C#N)C(=O)N2CCCC2c2ccccc2Cl)cc1` (stereo not drawn) [Cpd 105] yielded an IC50 of 432 nM. Also, the inhibition at 0.5 µM (canine TRPM8 HEK293, icilin) was 88%.
For `COc1ccc(C(Nc2ccccc2)C(=O)N2CCCC2c2ccccc2Cl)cc1` (stereo not drawn) [Cpd 66] the same measures were 28 nM and 102%.
`O=C(C(Nc1ccccc1F)c1ccc(C(F)(F)F)cc1)N1CCCC1c1cncc(Br)c1` (stereo not drawn) [Cpd 344]: the IC50 came out at 44 nM. In addition, the inhibition at 0.2 µM (canine TRPM8 HEK293, icilin) was 98%.
On the same counts, the results for `O=C(C(Nc1ccccc1F)c1ccc2ncccc2c1)N1CCCC1c1ccccc1F` (single isomer, unassigned) [Cpd 247] are 8.4 nM and 93%.
On the same counts, the results for `O=C(C(Nc1ccccc1F)c1ccc(C(F)(F)F)cc1)N1CCCC1c1ccccc1` (single isomer, unassigned) [Cpd 190] are 85 nM and 89%.
On the same counts, the results for `O=C(C(Nc1ccccc1F)c1ccc(-c2ccccn2)cc1)N1CCC[C@H]1c1ccccc1F` (mixture of isomers) [Cpd 289] are 12 nM and 84%.
In the case of `CC(C)(C)c1ccc(C(Nc2ccccc2)C(=O)N2CCCC2c2ccncc2)cc1` (stereo not drawn) [Cpd 53], the IC50 was 53.8 nM. Moreover, the inhibition at 0.5 µM (canine TRPM8 HEK293, icilin) was 99%.
Consider `O=C(C(Nc1ccccc1F)c1ccc(-c2ccccn2)cc1)N1CCCC1c1ccccc1F` (single isomer, unassigned) [Cpd 297], for which the IC50 was 65 nM and 69 nM. Besides, under setting [1], the “% Inh @ 0.2 μM” value was 85% and 87%.
As to `O=C(C(CNc1ccccc1)c1ccc(C(F)(F)F)cc1)N1CCc2ccccc2C1` (stereo not drawn) [Cpd 102], inhibition was half-maximal at 159 nM (IC50). In addition, for the setting “canine TRPM8 HEK293, icilin”, the inhibition at 0.5 µM was found to be 98%.
`O=C(C(Nc1ccccc1)c1ccc(C(F)(F)F)cc1)N1CCCC1c1ccccc1` (stereo not drawn) [Cpd 17]: half-maximal inhibition (IC50) was put at 60.3 nM. Moreover, the inhibition at 1 µM (canine TRPM8 HEK293, icilin) came out at 98.2%.
As to `COc1ccc(NC(C(=O)N2CCCC2c2ccccc2)c2ccc(Cl)cc2)cc1` (stereo not drawn) [Cpd 139], the IC50 was found to be 116 nM. The inhibition at 0.5 µM (canine TRPM8 HEK293, icilin) is 81%.
For `O=C(C(Nc1ccccc1)c1cccc(C(F)(F)F)c1)N1CCCC1c1ccccc1Cl` (stereo not drawn) [Cpd 97] the same measures were 89 nM and 100%.
`COC(=O)C1CCC(c2ccccc2)N1C(=O)C(Nc1ccccc1F)c1ccc(Br)cc1` (single isomer, unassigned) [Cpd 208] had an IC50 of 9 nM. The inhibition at 0.2 µM (canine TRPM8 HEK293, icilin) came out at 101%.
Consider `Cc1cccc2c1N(C(=O)C(Nc1ccccc1)c1ccc(C(F)(F)F)cc1)CC2` (stereo not drawn) [Cpd 27], for which 316 nM corresponded to half-maximal inhibition (IC50). Also, the inhibition at 0.5 µM (canine TRPM8 HEK293, icilin) was found to be 93.2%.
`CC(C)(C)c1ccc(C(Nc2ccccc2)C(=O)N2CCCC2c2ccc(Cl)cc2)cc1` (single isomer, unassigned) [Cpd 367] yielded an IC50 of 149 ± 51 nM. For the same compound, the “% Inh @ 1 μM” value (1 μM compound, canine TRPM8 HEK293, icilin, 1 µM) is 5.8157%.
In turn, `O=C(C(Nc1ccccc1)c1ccc(C(F)(F)F)cc1)N1CCc2ccccc21` (stereo not drawn) [Cpd 33] yielded an IC50 of 202 nM. For the setting “canine TRPM8 HEK293, icilin”, the inhibition at 0.5 µM came to 96.5%.
`O=C(C(Nc1ccccc1F)c1ccc(C(F)(F)F)cc1)N1CCCC1c1ccccc1` (single isomer, unassigned) [Cpd 191] returned an IC50 of 5 nM. Under setting [1], the “% Inh @ 0.2 μM” value is reported as 100%.
`CC(C)(C)c1ccc(C(Nc2ccccc2F)C(=O)N2CCC[C@H]2c2ccccc2F)cn1` (mixture of isomers) [Cpd 355] showed an IC50 of 5 nM. Further, the inhibition at 0.2 µM (canine TRPM8 HEK293, icilin) turned out to be 100%.
`CC(C)(C)c1ccc(C(Nc2ccccc2)C(=O)N2CCCC2c2cccnc2)cc1` (stereo not drawn) [Cpd 5] returned an IC50 of 99.5 nM. Moreover, the inhibition at 1 µM (canine TRPM8 HEK293, icilin) came out at 102%.
Consider `O=C(C(Nc1ccccc1F)c1ccc(-c2ccccc2)nc1)N1CCCC1c1ccccc1F` (single isomer, unassigned) [Cpd 308], for which, under “canine TRPM8 HEK293, icilin”, the “% Inh @ 0.2 μM” value is given as 11%.
In the case of `COC(=O)c1cccc(C2CCCN2C(=O)C(Nc2ccccc2F)c2ccc(C(F)(F)F)cc2)c1` (mixture of isomers) [Cpd 221], the midpoint of inhibition, the IC50, lay at 22 nM. For the same compound, the “% Inh @ 0.2 μM” value (canine TRPM8 HEK293, icilin) is 102%.
Compound `O=C(C(c1ccc(C(F)(F)F)cc1)N1CCCc2ccccc21)N1Cc2ccccc2C1` (stereo not drawn) [Cpd 363] gave an IC50 of 134 nM. Also, for the setting “canine TRPM8 HEK293, icilin”, the inhibition at 0.2 µM worked out at 72%.
On to `COC(=O)C1CCC(c2ccccc2)N1C(=O)C(Nc1ccccc1)c1ccc(Cl)cc1` (stereo not drawn) [Cpd 207], for which the “% Inh @ 0.2 μM” value under setting [1] worked out at 47%.
Take `O=C(C(Nc1ccccc1F)c1ccc(C(F)(F)F)cc1)N1CCCC1c1ccccc1F` (mixture of isomers) [Cpd 153]: half-maximal inhibition (IC50) was put at 44 nM. The “% Inh @ 0.5 μM” value (canine TRPM8 HEK293, icilin) was found to be 99.694%.
`COc1ccc(C(Nc2ccccc2)C(=O)N2CCCC2c2ccccc2)cc1` (stereo not drawn) [Cpd 72] gave an IC50 of 46 nM. Moreover, the inhibition at 0.5 µM (canine TRPM8 HEK293, icilin) amounted to 102%.
On the same counts, the results for `O=C(C(Nc1ccccc1F)c1ccc(Cl)cc1)N1CCCC1c1ccccc1` (stereo not drawn) [Cpd 112] are 18.1 nM and 96%.
In the case of `N#Cc1ccc(C(Nc2ccccc2F)C(=O)N2CCCC2c2ccccc2Cl)cc1` (stereo not drawn) [Cpd 62], the IC50 is 78 nM. Further, the inhibition at 0.5 µM (canine TRPM8 HEK293, icilin) was 103%.
For `O=C(C(Nc1ccccc1F)c1ccc(C(F)(F)F)cc1)N1CCCC1c1cccc(F)c1` (stereo not drawn) [Cpd 132] the same measures were 9 nM and 99%.
For the compound `O=C(C(Nc1ccccc1F)c1ccc(-n2ccnc2)cc1)N1CCCC1c1ccccc1F` (stereo not drawn) [Cpd 301], the IC50 is 35 nM. Besides, for the setting “canine TRPM8 HEK293, icilin”, the inhibition at 0.2 µM came out at 99%.
On the same counts, the results for `O=C(O)c1cccc([C@@H]2CCCN2C(=O)C(Nc2ccccc2F)c2ccc(C(F)(F)F)cc2)c1` (mixture of isomers) [Cpd 349, 3-{(1S)-1-[2-(2-Fluoro-phenylamino)-2-(4-trifluoromethyl-phenyl)-acetyl]-pyrrolidin-2-yl}-benzoic acid] are 33 nM and 100%.
Turning to `O=C(C(Nc1ccccc1F)c1ccc(Br)cc1)N1CCCC1c1cccnc1` (racemic) [Cpd 269], under “canine TRPM8 HEK293, icilin”, the “% Inh @ 0.2 μM” value came to 47%.
`O=C(C(Nc1ccccc1F)c1ccc(C(F)(F)F)cc1)N1CCC[C@H]1c1cccc(F)c1` (mixture of isomers) [Cpd 186] gave an IC50 of 18 nM. Further, for the setting “canine TRPM8 HEK293, icilin”, the inhibition at 0.2 µM came out at 98%.

These data come from patent publication US8143259B2, “Cold menthol receptor antagonists” (Janssen Pharmaceutica, NV, priority 2008, dated 2012).
